Reference: patent publication US11998595B2, “Telomerase polypeptide vaccine for treating cancer” (Ultimovacs AS, priority 2010, dated 2024)

Assays:
Type in all cases: cell-based, human
T cells (patient PBMCs) = assay: T-cell proliferation assay (3H-thymidine) of patient PBMC/T cells with hTERT peptides or transfected DC; settings: for response of clinical non-responders: GV1001-vaccinated
Method: FIG. 1 is a bar graph summarising hTERT T-cell responses detected in pancreas cancer patient vaccinated with DC transfected with hTERT mRNA. In samples from various time points throughout a vaccination schedule, T-cell responses against 24 overlapping hTERT 15-mer peptides were detected. Proliferation in response to peptide-loaded PBMC was measured by ^3H-thymidine incorporation. A stimulation index of >2 is considered an immune response.
Peripheral blood mononuclear cells (PBMCs) were obtained prior to the four standard vaccinations, after 5 weeks and after 12 weeks. PBMCs were also obtained before each monthly booster vaccination. The PBMCs were isolated and frozen as previously described (Kyte et al, 2005). Thawed PBMCs were stimulated once in vitro with tDCs (not with mockDCs) and cultured and then tested in T cell proliferation assays (^3H Thymidine) as previously described (Kyte et al 2006). The T cells were tested in triplicates. Irradiated tDCs and mock-transfected DC controls (mockDCs) were used or PBMC with or without hTERT peptide as APCs. Negative controls with T cells only were included.
PBMCs from various time points were stimulated with an overlapping hTERT 15-mer peptide library or a 30-mer hTERT peptide, all from ProImmune and then tested in proliferation assays as above using irradiated PBMCs as APCs as described in (Bernhardt et al 2006).
T-cell responses to a hTERT peptide library (including the polypeptides from Table 1) were determined for T-cells from 5 patients in addition to the patients reported in Examples 1 and 2. The methods were the same as previously described in Example 1 or in Bernhardt et al 2006. In brief, PBMCs from various time points during vaccination were stimulated with the overlapping hTERT peptide library prior to testing for specific T-cell responses in proliferation assays.
The proliferative T-cell responses of each patient to a series of peptides were then determined as explained in Example 1. The results are tabulated in Table 5 and are shown graphically in FIG. 14 in which the peptide designations are referenced in Table 6 (the results for peptides 726 and GV1001 are shown only for comparison).
Four patients who were clinical non-responders following a lung cancer diagnosis and a GV1001 (SEQ ID NO. 10) peptide vaccination were studied. These patients were all stage IV lung cancer patients vaccinated with GV1001. […] The proliferative T-cell responses of each patient to a series of peptides were determined in the same manner as in Example 1, at one time point. The peak response of each patient during the study period to peptide GV1001 is also shown which confirms that each patient responded immunologically to GV1001 vaccination.
Six patients who were clinical non-responders following a melanoma cancer diagnosis and a GV1001 peptide (SEQ ID NO. 10) vaccination were studied. These patients were all stage IV melanoma patients and included in the same GV1001 vaccination trial as melanoma patients P7 and P8 who were long term survivors (see Example 6). […] Five of the patients also experienced progressive disease and one patient, designated Melanoma P3, experienced some stabilization of the disease but still had short survival. The proliferative T-cell responses of each patient to a series of peptides were determined in the same manner as in Example 1, at one time point. The peak response of each patient during the study period to peptide GV1001 is also shown which confirms that each patient responded immunologically to GV1001 vaccination.

CD4+ T-cell clones = assay: Peptide-specific T-cell clones from patients (HLA class II allele, peptide titration); settings: for Specific clones: colon cancer
From the text: A value above 2 is considered as a positive response.
T-cell clones specific for all of the peptides of 15- or 30-amino acids shown in Table 1 have also been obtained from patients. […] This is important in order to be able to induce strong immune response in vivo where peptide concentrations are lower.
In addition, the 15- and 30-mer peptides listed in Table 1 show reactivity in nearly all patients tested, which means they are promiscuous with respect to the HLA class II alleles on which they are presented and that they are applicable to nearly the whole population without any need for HLA-screening (see Table 2).

[1] = system: T cells stimulated with peptide-loaded autologous EBV-LCL; assay: Intracellular cytokine staining of peptide-stimulated T cells
[2] = system: CD8+ T cells (patient PBMCs); assay: Pentamer staining of hTERT-specific CD8+ T cells by flow cytometry; settings: patients of Examples 1 to 8
[3] = GV1001 vaccinated lung cancer patient

ALFSVLNYERARRPGLLGASVLGLDDIHRA [SEQ ID NO. 1]
T-cell response (T cells (patient PBMCs); [3]): very strong responses | reactivity in cancer patients tested (T cells (patient PBMCs); cancer patients, mostly vaccinated): reactivity in nearly all the cancer patients tested | response of clinical non-responders (T cells (patient PBMCs); four stage IV lung cancer patients): very low or no response | T-cell response compared with the vaccine peptide GV1001 (T cells (patient PBMCs); one patient vaccinated with GV1001, certain time points (FIG. 3)): even stronger than to the vaccine peptide itself | proliferative T-cell response (detected or not) (T cells (patient PBMCs); pancreas cancer patient vaccinated with DC/hTERT mRNA): Proliferative T-cell responses were detected | proliferative T-cell response (SI) (T cells (patient PBMCs); patient Colon ca P1, GV1001-vaccinated, clinical responder): 27.2 | proliferative T-cell response (SI) (T cells (patient PBMCs); patient Lung ca P1, GV1001-vaccinated, clinical non-responder, one time point): 1 | proliferative T-cell response (SI) (T cells (patient PBMCs); patient Lung ca P2, GV1001-vaccinated, clinical non-responder, one time point): 1.1 | proliferative T-cell response (SI) (T cells (patient PBMCs); patient Lung ca P3, GV1001-vaccinated, clinical non-responder, one time point): 0.9 | proliferative T-cell response (SI) (T cells (patient PBMCs); patient Lung ca P4, GV1001-vaccinated, clinical non-responder, one time point): 1.5 | proliferative T-cell response (SI) (T cells (patient PBMCs); patient Lung ca P5, GV1001-vaccinated, clinical responder): 44.5 | proliferative T-cell response (SI) (T cells (patient PBMCs); patient Lung ca P6, DC/hTERT mRNA-vaccinated, clinical responder, high background): 2.5 | proliferative T-cell response (SI) (T cells (patient PBMCs); patient Melanoma P1, GV1001-vaccinated, clinical non-responder, one time point): 1.6 | proliferative T-cell response (SI) (T cells (patient PBMCs); patient Melanoma P2, GV1001-vaccinated, clinical non-responder, one time point): 5.3 | proliferative T-cell response (SI) (T cells (patient PBMCs); patient Melanoma P3, GV1001-vaccinated, clinical non-responder, one time point): 0.3 | proliferative T-cell response (SI) (T cells (patient PBMCs); patient Melanoma P4, GV1001-vaccinated, clinical non-responder, one time point): 1 | proliferative T-cell response (SI) (T cells (patient PBMCs); patient Melanoma P5, GV1001-vaccinated, clinical non-responder, one time point): 1.9 | proliferative T-cell response (SI) (T cells (patient PBMCs); patient Melanoma P6, GV1001-vaccinated, clinical non-responder, one time point): 1.8 | proliferative T-cell response (SI) (T cells (patient PBMCs); patient Melanoma P7, GV1001-vaccinated, clinical responder): 44.5 | proliferative T-cell response (SI) (T cells (patient PBMCs); patient Melanoma P8, GV1001-vaccinated, clinical responder): 5.7 | proliferative T-cell response (SI) (T cells (patient PBMCs); patient Melanoma P9, non-vaccinated, spontaneous response): 6.9 | proliferative T-cell response (SI) (T cells (patient PBMCs); patient Pancreas ca P1, DC/hTERT mRNA-vaccinated, clinical responder, high background): 17.1 | immunological responses in clinical responders (T cells (patient PBMCs); patients responding / 7 clinical responders): 7/7 | immunological responses in clinical non-responders (T cells (patient PBMCs); patients responding / 10 clinical non-responders): 1/10 | response of clinical non-responders (T cells (patient PBMCs); six stage IV melanoma patients): very low or no response | T-cell clones derived from the culture with the peptide that were specific (CD4+ T-cell clones; [3]): 75% | Specific clones (CD4+ T-cell clones; HLA class II allele DR*07, specificity printed as 'Part of 660-689', 1 patient, Schroers et al, 2003): 3 | Specific clones (CD4+ T-cell clones; HLA class II allele DR*14, 2 patients, lung cancer): 6 clones | CD8+ T cell population after stimulation with peptide-loaded versus non-peptide loaded targets ([1]; pancreas cancer patient (data not shown)): no difference in the CD8+ T cell population | CD4+ T cells secreting IFN-γ, IL-4 and TNF-α ([1]; pancreas cancer patient, one round of in vitro stimulation, autologous EBV-transformed B-cells loaded with same peptide): small population of multifunctional CD4+ T cells | patients with CTL responses shown by pentamer analysis [2]: Several
